From PubChem BioAssay AID624258 (Broad Institute, 2012)
Active and inactive are the calls of the source. The rule behind the calls is not given here.

Experiment: Yeast SKN7 toxicity growth rescue counterscreen, Saccharomyces cerevisiae, plate reader, dose confirmatory (AID 624258);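 note: growth read after three days of incubation at 30 °C; 0% = median of neutral control wells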
Conditions: S. cerevisiae SKN7-toxicity growth rescue, plate reader; at 6.8 µM (top of the series)

Compound	growth rescue activity
CC(C)(C)n1nc(Cc2cccc3ccccc23)c2c(N)ncnc21	-49.1% (inactive)
COc1cc2nc(N3CCNCC3)nc(N)c2cc1OC	5.76% (inactive)
CC(C)NC(=O)NC(=O)COC(=O)c1ccc([N+](=O)[O-])cc1Cl	-6.28% (inactive)
CN(C)CCCNc1cc(C(C)(C)C)nc2c(-c3ccc(Cl)cc3)cnn12	14.1% (inactive)
Cc1ccc2c(c1C)-c1c(ccc(C)c1C)C(=O)C2=O	-4.89% (inactive)
O=C(Nc1ccc(Cl)cc1)NC1CCCCC1Cc1ccco1 (stereo unspecified)	76.3% (inactive)
CCCn1c2ccccc2c2cc(C(=O)O)ccc21	-29.3% (inactive)
CCc1cc(SC#N)cc(C)c1NC(=O)CCl	-50.8% (inactive)

Same assay, conditions: S. cerevisiae SKN7-toxicity growth rescue, plate reader; at 19.5 µM (top of the series)

Compound	growth rescue activity
O=P(Nc1cccnc1)(Oc1ccccc1Cl)Oc1ccccc1Cl	-59% (inactive)
CC1(C)C2CCC1(C)C(OC(=O)c1ccc(O)cc1)C2 (stereo unspecified)	-86.9% (inactive)
C=CCOc1ccc(-c2n[nH]c(=S)o2)cc1	-47.1% (inactive)
Cc1cc(O)c(-c2cc(O)c(C)cc2O)cc1O	-8.5% (inactive)
CC(Nc1cccc2ccccc12)C(=O)N/N=C/c1ccccn1 (stereo unspecified)	-11.5% (inactive)
CC(=O)C1=C(c2cccc([N+](=O)[O-])c2)N(C(C)=O)n2c(C)nnc2S1	-84.3% (inactive)
O=C1C=C(NCCc2cc(Br)c(O)c(Br)c2)C(=O)c2ncccc21	30.5% (inactive)
COC(=O)C1=NN(C(=O)c2cccc(Br)c2)C(O)(c2ccc(Cl)cc2)C1 (stereo unspecified)	-17.5% (inactive)
O=C1CC(c2cccc([N+](=O)[O-])c2)c2ccc3ccccc3c2N1 (stereo unspecified)	47.4% (inactive)
C=CCOCCN(C)C1=NS(=O)(=O)c2cc([N+](=O)[O-])ccc21	-14.3% (inactive)
Cc1cc(C)c(C(=O)CC(=O)c2cccnc2)c(C)c1	-57.9% (inactive)
Cc1nc2ccc(C(C(F)(F)F)(C(F)(F)F)C(F)(F)F)cc2[nH]1	-85.7% (inactive)
Oc1c(C(Nc2ccccn2)c2ccccn2)ccc2cccnc12 (stereo unspecified)	-61.4% (inactive)
Cc1cc(C(F)(F)F)n2[nH]c(=O)c(N=Nc3ccccc3)c2n1	-58.6% (inactive)
COc1cccc(Nc2nc(-c3cccs3)nc3ccccc23)c1	-45.7% (inactive)
CCCC(=O)NC(c1ccc(N(C)C)cc1)c1ccc2cccnc2c1O (stereo unspecified)	-7.33% (inactive)
O=C(CCNS(=O)(=O)c1ccc(Br)s1)N1CCN(c2ccccc2)CC1	-25.4% (inactive)
O=C(C1CCN(C2CC(=O)N(c3cccc(Cl)c3)C2=O)CC1)N1CCCC1 (stereo unspecified)	84.3% (inactive)
CCOC(=O)c1cnc(-n2nc(C)cc2C)nc1NC1CCCC1	-62% (inactive)
Cc1oc2c(c1C(=O)c1ccccc1)C(=O)C(=O)c1ccccc1-2	16.8% (inactive)
Nc1cc2c3ccccc3ccc2c2ccccc12	-51.9% (inactive)
CCCCCCSc1ccc(-c2nc3ccccn3c2NCCCC)cc1	-84.3% (inactive)

Compound	growth rescue activity
CC(=O)N(c1ccccc1)c1ccc([N+](=O)[O-])cc1[N+](=O)[O-]	-25.3% (inactive)
O=C(c1cccs1)c1no[n+]([O-])c1C(=O)c1cccs1	-87.1% (inactive)
CC(=O)c1c(O)ccc2c(-c3ccccc3)cc(=O)oc12	-69.1% (inactive)
CC(=O)Oc1ccc(OC(C)=O)c(SCCCCCCl)c1	-46.3% (inactive)
Cc1nn(CCC#N)c(N)c1C1(O)C(=O)Nc2c(Cl)cc(Cl)cc21 (stereo unspecified)	12.9% (inactive)
COc1ccc(S(=O)(=O)Nc2cc(SCC(=O)O)c(O)c3ccccc23)cc1	4.66% (inactive)
O=C(Nc1ccc(Br)c(C(F)(F)F)c1)c1ccccc1	-78.2% (inactive)
S=C(Nc1ccc(Oc2ccccc2)cc1)NC1CCCCCC1	-9.53% (inactive)
CCCCC(c1nnnn1Cc1ccco1)N1CCN(c2nc3ccccc3s2)CC1 (stereo unspecified)	-9.41% (inactive)
O=C(CC1CC2CCC1C2)Nc1nc(-c2ccccn2)cs1 (stereo unspecified)	-53.4% (inactive)
COC(=O)c1cccc2c1NC(=O)C2=O	-14.3% (inactive)
COC(OC)c1ccc(C#N)c(SCc2ccccc2)n1	-28.8% (inactive)
CCOC(=O)c1c(C)[nH]c2c1-c1ccccc1C(=O)C2=O	-17.4% (inactive)
FC(F)(F)c1cccc(N2CCc3cn[nH]c32)c1	-94.6% (inactive)
COC(=O)/C(=C/Nc1ccc(O)cc1)[N+](=O)[O-]	-10% (inactive)
O=[N+]([O-])c1ccc2c(OCc3nnc(-c4ccccc4Br)o3)ncnc2c1	7.4% (inactive)
c1ccc(-c2ccc(SCc3cccnc3)nn2)nc1	-9.85% (inactive)
CCC(=O)NC(c1ccco1)c1cc(Cl)c2cccnc2c1O (stereo unspecified)	-49.4% (inactive)
CCCCCCCCCCSc1n[nH]c(N)n1	-93.1% (inactive)
Oc1c(Br)cc(-c2ccccc2)cc1Br	-84.6% (inactive)
N#Cc1c(-c2cccc([N+](=O)[O-])c2)nc2n(c1=O)CCS2	1.05% (inactive)
Cc1ccccc1C(=O)NNC(=S)NC(=O)c1ccc(Cl)cc1Cl	-23.2% (inactive)

Compound	growth rescue activity
CCOc1ccc(-c2[nH]ncc2Oc2cccc(OC)c2)c(O)c1	-63.7% (inactive)
CCCS(=O)(=O)c1c(S(=O)(=O)CCC)c2c(C)cccn2c1C(=O)N/N=C/c1cc(O)cc(O)c1	22.5% (inactive)
O=[N+]([O-])c1ccc(Sc2cccc[n+]2[O-])c2nonc12	-4.98% (inactive)
CC1CCN(c2ccc3c(c2)S(=O)(=O)c2ccccc2C3=O)CC1	-45.6% (inactive)
CCCCCCCCCCCCCC(=O)NO	-69.6% (inactive)
CC1CC(=Cc2ccc([N+](=O)[O-])cc2)C(=O)O1 (stereo unspecified)	2.43% (inactive)
COc1ccc2[nH]c(=O)c(CN(Cc3cccnc3)C(=O)Nc3ccccc3)cc2c1	-61.1% (inactive)
S=C(NNc1ccc2ccccc2c1)NC1CCCCC1	-14.9% (inactive)
O=C(O)CSc1nc(-c2ccc(Cl)cc2)nc2c1oc1ccccc12	-84.1% (inactive)
C=CCc1ccc(O)c(-c2ccc(O)c(CC=C)c2)c1	-65.1% (inactive)
CCn1nc(/C=C/c2ccccc2)nc2c(=O)n(C)c(=O)nc1-2	-44.4% (inactive)
O=C(Sc1cccc2cccnc12)c1ccccc1Br	-59.6% (inactive)
C=CCc1cccc(C=Nc2cc(Br)ccc2O)c1O	-45% (inactive)
COc1cccc(NC(=O)CN(C)C(=O)c2cccnc2Nc2cccc(C(F)(F)F)c2)c1	-21.3% (inactive)
COc1ccc(C(=O)On2c(-c3ccc(Br)cc3)nc3ccccc3c2=O)cc1	-5.26% (inactive)
Cc1ccc(S(=O)(=O)Nc2ccc(O)c3cccnc23)cc1	-0.63% (inactive)
Cc1cc(Cl)ccc1C(=O)C1CCCN(C(=O)c2cncs2)C1 (stereo unspecified)	-54.3% (inactive)
Cn1ccc(=Nc2ccc(NC(=O)c3ccc(N=c4ccn(C)c5ccc([N+](=O)[O-])cc45)cc3)cc2)cc1	-76.1% (inactive)
C=CCn1c(-c2cc(-c3ccc(C)cc3)nc3ccccc23)n[nH]c1=S	0.203% (inactive)
CC(C)C(=O)NC(c1ccco1)c1ccc2cccnc2c1O (stereo unspecified)	-67.3% (inactive)
O=C(N/N=C/c1cc(Br)cc(Cl)c1O)c1ccc2c(c1)OCO2	-36.6% (inactive)
CCCCNc1c(-c2cccc(-c3ccc(OC)cc3)c2)nc2ccc(C)cn12	-90.6% (inactive)

Compound	growth rescue activity
CCC(C)n1ncn(-c2ccc(N3CCN(c4ccc(OCC5COC(Cn6cncn6)(c6ccc(Cl)cc6Cl)O5)cc4)CC3)cc2)c1=O (stereo unspecified)	-70.7% (inactive)
CCOc1ccc(N/N=C(/C#N)C(N)=O)cc1	-49.6% (inactive)
O=C(Oc1c(Cl)cc(Cl)c2cccnc12)c1cccs1	-79.3% (inactive)
O=S(=O)(c1ccc(Cl)cc1)N1CCC2(CC1)OCCN2S(=O)(=O)c1cccs1	-46.5% (inactive)
O=C(Nc1cccc(C(F)(F)F)c1)c1cccnc1NCCc1ccccc1	-54.3% (inactive)
N#Cc1c(-c2ccccc2)nc2n(c1=O)CCS2	27.6% (inactive)
COc1ccc(OCC(=O)NNC(=S)NC(=O)C2CCCCC2)cc1	-64.8% (inactive)
CCc1ccc(S(=O)(=O)N(C(=O)c2ccncc2)c2ccc(OC(=O)c3ccncc3)cc2)cc1	-42.7% (inactive)
O=c1cc(CSc2ccc(Cl)cc2)nc(-c2ccccn2)[nH]1	-48.1% (inactive)
c1ccc(Nc2nc(-c3ccccn3)cs2)cc1	-0.973% (inactive)
COc1cc(NS(=O)(=O)c2ccc(C)cc2)c2ncccc2c1	-51.9% (inactive)
CCc1ccc(OCc2n[nH]c(=S)n2Cc2ccccc2)cc1	-30.5% (inactive)
CCC(C)Sc1cccc(-c2nc3ccccn3c2NCc2ccccc2)c1 (stereo unspecified)	-90.6% (inactive)
Cn1c(CNc2ccccc2O)nc2ccccc21	-50% (inactive)
S=C(NC1CCCC1)N1CCN(c2cccc(Cl)c2)CC1	13.6% (inactive)
C=CCN(CC=C)C(=S)NC(=O)c1ccc(C)c(Br)c1	-13.6% (inactive)
COC(=O)c1cc(C#N)c(Oc2ccc(F)cc2)nc1C	-11.6% (inactive)
O/N=C/c1cc(Br)ccc1OCc1ccccc1F	-57.4% (inactive)
CC1Oc2ccccc2C=C1/C=N/Nc1ccc(C(=O)O)cc1 (stereo unspecified)	-32.7% (inactive)
FC(F)(F)c1cccc(N2CCN(C(=S)NC3CCCCC3)CC2)c1	64.1% (inactive)
COc1cccc(/C=N/Nc2ncnc3scc(-c4ccccc4)c23)c1O	-79.1% (inactive)
COc1cnc(-c2ccccn2)nc1Sc1ccccc1	-65.3% (inactive)
